Series [1] relates to Bacillus spizizenii. Nature of the series: Antibacterial activity against Bacillus subtilis ATCC 6633 after 18 hrs by two-fold microbroth dilution method. The class given is functional. As to conditions: ATCC 6633, 18 h. (Dilution methods test growth across graded concentrations, often in twofold steps.)
The subject of series [2] is Escherichia coli. Nature of the series: Antibacterial activity against Escherichia coli NIHJ after 18 hrs by two-fold microbroth dilution method. The class given is functional.
Series [3] relates to Klebsiella pneumoniae. The series is described as follows: Antibacterial activity against Klebsiella pneumoniae TYPE 1 after 18 hrs by two-fold microbroth dilution method. The class given is functional. The settings on record: TYPE 1, 18 h.
A short description of series [4]: Cmax in Crj:CD rat at 5 mg/kg, po. Type of series: ADME, organism-based. More on the design: dose 5 mg/kg, route oral. The settings on record: in vivo.
Series [5] deals with Escherichia coli. The series is described as follows: Antibacterial activity against quinolone-resistant Escherichia coli DNS5101 after 18 hrs by two-fold microbroth dilution method. Type of series: functional. The settings on record: DNS5101, 18 h.
In series [6] the test system is Streptococcus pneumoniae. Nature of the series: Antibacterial activity against penicillin-susceptible Streptococcus pneumoniae J41 after 18 hrs by two-fold microbroth dilution method. Type of series: functional. As to conditions: J41, 18 h.
The test system of series [7] is Haemophilus influenzae. The series is described as follows: Antibacterial activity against Haemophilus influenzae ATCC 49247 after 18 hrs by two-fold microbroth dilution method. The class given is functional. As to conditions: ATCC 49247, 18 h.
The subject of series [8] is Staphylococcus aureus. Nature of the series: Antibacterial activity against levofloxacin and methicillin-resistant Staphylococcus aureus 870307 after 18 hrs by two-fold microbroth dilution method. The class given is functional. As to conditions: Staphylococcus aureus, 870307, 18 h.
In series [9] the test system is Streptococcus pyogenes. Nature of the series: Antibacterial activity against Streptococcus pyogenes ATCC 12344 after 18 hrs by two-fold microbroth dilution method. As to conditions: ATCC 12344, 18 h. The class given is functional.
Series [10] concerns Pseudomonas aeruginosa. The series is described as follows: Antibacterial activity against Pseudomonas aeruginosa PAO1 after 18 hrs by two-fold microbroth dilution method. The settings on record: PAO1, 18 h. The class given is functional.
Series [11] deals with Staphylococcus aureus. The series is described as follows: Antibacterial activity against levofloxacin and methicillin-resistant Staphylococcus aureus 890325-1 after 18 hrs by two-fold microbroth dilution method. The class given is functional. As to conditions: 890325-1, 18 h.
Series [12] has as its system Staphylococcus aureus. The series is described as follows: Antibacterial activity against Staphylococcus aureus SMITH after 18 hrs by two-fold microbroth dilution method. The class given is functional.
The subject of series [13] is Streptococcus pneumoniae. Nature of the series: Antibacterial activity against penicillin-susceptible Streptococcus pneumoniae J24 after 18 hrs by two-fold microbroth dilution method. The class given is functional. As to conditions: J24, 18 h.
Series [14] deals with Escherichia coli. The series is described as follows: Antibacterial activity against Escherichia coli 5-037042'98 harboring gyrase A Asp87Gly mutation after 18 hrs by two-fold microbroth dilution method. Type of series: functional. As to conditions: 5-037042'98, 18 h.
The test system of series [15] is Enterococcus faecalis. Nature of the series: Antibacterial activity against Enterococcus faecalis ATCC 19433 after 18 hrs by two-fold microbroth dilution method. Type of series: functional. The settings on record: ATCC 19433, 18 h.
Series [16] concerns Moraxella catarrhalis. Nature of the series: Antibacterial activity against Moraxella catarrhalis ATCC 25238 after 18 hrs by two-fold microbroth dilution method. The class given is functional. The settings on record: ATCC 25238, 18 h.
A short description of series [17]: AUC (0 to 8 hrs) in Crj:CD rat at 5 mg/kg, po. More on the design: time < 8 hr, dose 5 mg/kg, route oral. The settings on record: in vivo. Type of series: ADME, organism-based.
For series [18], the system named is Streptococcus pneumoniae. The series is described as follows: In vivo antibacterial activity against quinolone-sensitive and penicillin-resistant Streptococcus pneumoniae 033806 infected in CBA/JNCrj mouse assessed as reduction in bacterial count at 10 to 40 mg/kg, sc administered twice per day starting from 1 day after infection and measured on day after final dose. The class given is functional, organism-based.

In series [19] the test system is Streptococcus pneumoniae. The series is described as follows: In vivo antibacterial activity against quinolone-sensitive and penicillin-resistant Streptococcus pneumoniae 033806 infected in CBA/JNCrj mouse assessed as reduction in bacterial count at 40 to 80 mg/kg, sc administered twice per day starting from 1 day after infection and measured on day after final dose. Type of series: functional, organism-based.

Series [20] addresses T1, hERG (KCNH2) (Homo sapiens, UniProt Q12809). The series is described as follows: Inhibition of human ERG expressed in HEK293 cells at 30 uM. The class given is cell-based. The settings on record: HEK293 cells that express human ERG.
The target in series [21] is T1, hERG (KCNH2). Nature of the series: Inhibition of human ERG expressed in HEK293 cells at 100 uM. The class given is cell-based. The settings on record: HEK293 cells that express human ERG.
Series [22] in a line: Cmax in cynomolgus monkey serum at 5 mg/kg, po. Further details: dose 5 mg/kg, route oral. The class given is ADME, organism-based, Macaca fascicularis.
Series [23] is described as follows: Half life in cynomolgus monkey serum at 5 mg/kg, po. Type of series: ADME, organism-based, Macaca fascicularis.
Series [24] can be described thus: AUC (0 to 24 hrs) in cynomolgus monkey serum at 5 mg/kg, po. Type of series: ADME, organism-based, Macaca fascicularis. More on the design: time < 24 hr, dose 5 mg/kg, route oral.
The nature of series [25]: Drug recovery in cynomolgus monkey urine at 5 mg/kg, po after 24 hrs. Type of series: ADME, organism-based, Macaca fascicularis. The settings on record: read-out: Drug recovery.
Series [26] in a line: Oral bioavailability in cynomolgus monkey at 5 mg/kg. As to conditions: in vivo. The class given is ADME, organism-based, Macaca fascicularis.

Each structure is given as a SMILES string. Values after ≈ are worked out from the molar mass of the structure shown. Active and inactive are the calls of the source. The rule behind the calls is not given here. Bounds are passed on as bounds.

Consider five compounds from ChEMBL document CHEMBL4229492, “Design, Synthesis, and Biological Evaluation of Novel 7-[(3 aS,7 aS)-3 a-Aminohexahydropyrano[3,4- c]pyrrol-2(3 H)-yl]-8-methoxyquinolines with Potent Antibacterial Activity against Respiratory Pathogens” (J Med Chem, 2018).

T1 sequence (Q12809 whole entry): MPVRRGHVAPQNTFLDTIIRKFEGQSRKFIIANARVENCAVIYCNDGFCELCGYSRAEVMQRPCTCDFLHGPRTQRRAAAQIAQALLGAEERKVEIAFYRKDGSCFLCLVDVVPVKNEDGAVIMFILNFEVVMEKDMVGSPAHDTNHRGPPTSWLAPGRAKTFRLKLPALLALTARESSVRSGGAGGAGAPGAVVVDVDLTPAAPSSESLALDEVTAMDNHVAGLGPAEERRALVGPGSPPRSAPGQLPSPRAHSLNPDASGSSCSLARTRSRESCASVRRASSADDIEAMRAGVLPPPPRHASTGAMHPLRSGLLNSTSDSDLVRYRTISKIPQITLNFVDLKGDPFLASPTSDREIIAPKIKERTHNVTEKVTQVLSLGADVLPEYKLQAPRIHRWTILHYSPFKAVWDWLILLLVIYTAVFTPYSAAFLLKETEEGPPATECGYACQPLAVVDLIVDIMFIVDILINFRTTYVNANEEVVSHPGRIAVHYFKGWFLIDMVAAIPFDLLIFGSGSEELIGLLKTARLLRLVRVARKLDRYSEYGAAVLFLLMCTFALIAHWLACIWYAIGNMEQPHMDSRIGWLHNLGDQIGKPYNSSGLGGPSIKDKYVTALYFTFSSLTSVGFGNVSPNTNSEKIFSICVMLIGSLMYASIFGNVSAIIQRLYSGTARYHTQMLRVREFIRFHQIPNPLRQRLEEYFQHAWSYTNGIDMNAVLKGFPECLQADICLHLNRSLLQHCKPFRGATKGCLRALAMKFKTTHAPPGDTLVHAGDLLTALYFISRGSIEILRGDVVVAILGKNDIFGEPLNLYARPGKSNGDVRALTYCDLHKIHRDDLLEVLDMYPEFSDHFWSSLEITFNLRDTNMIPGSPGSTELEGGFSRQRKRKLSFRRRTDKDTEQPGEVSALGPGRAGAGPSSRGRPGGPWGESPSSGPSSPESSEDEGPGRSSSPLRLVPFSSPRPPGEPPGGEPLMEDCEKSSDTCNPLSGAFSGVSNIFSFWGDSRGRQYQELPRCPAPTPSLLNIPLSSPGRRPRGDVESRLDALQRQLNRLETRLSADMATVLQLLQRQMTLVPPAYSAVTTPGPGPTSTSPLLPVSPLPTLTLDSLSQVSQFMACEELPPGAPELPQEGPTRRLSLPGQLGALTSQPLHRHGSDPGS

Turning to `N[C@@]12CCC[C@@H]1CNC2`, the MIC in series [1] stood at 0.012 µg/mL (≈ 0.0951 µM); in series [2] it was 0.025 µg/mL (≈ 0.198 µM); in series [3], 0.1 µg/mL (≈ 0.792 µM); in [5], 6.25 µg/mL (≈ 49.5 µM); in [6], 0.1 µg/mL (≈ 0.792 µM); in [7], 0.006 µg/mL (≈ 0.0475 µM). Further, the MIC is 0.78 µg/mL (≈ 6.18 µM) in series [8]; 0.025 µg/mL (≈ 0.198 µM) in [9]; 0.39 µg/mL (≈ 3.09 µM) in series [10]; 0.78 µg/mL (≈ 6.18 µM) in series [11]; below 0.003 µg/mL in series [12]; 0.05 µg/mL (≈ 0.396 µM) in [13]. The MIC in series [14] amounted to 0.1 µg/mL (≈ 0.792 µM); in [15], 0.1 µg/mL (≈ 0.792 µM); in [16], 0.025 µg/mL (≈ 0.198 µM). The Cmax (usually the highest concentration seen after dosing) in series [4] was found to be 49 ng/mL. In series [17], the AUC(0-t) (commonly exposure summed from dosing to a finite time, without extrapolation to infinity) at 8 h came to 210 ng·h/mL.
Regarding `COc1c(N2C[C@@H]3CCOC[C@@]3(N)C2)c(F)cc2c(=O)c(C(=O)O)cn([C@@H]3C[C@@H]3F)c12`, in [18], the outcome was Active.
Regarding `COc1c(N2C[C@@H]3CCCN[C@@H]3C2)c(F)cc2c(=O)c(C(=O)O)cn(C3CC3)c12`, the outcome in series [19] was Active.
As for `N[C@@]12CCCC[C@H]1CNC2`, the MIC in [1] stood at 0.006 µg/mL (≈ 0.0428 µM); in series [2] it was 0.006 µg/mL (≈ 0.0428 µM); in [3], 0.05 µg/mL (≈ 0.357 µM); in [5], 1.56 µg/mL (≈ 11.1 µM); in series [6] it was 0.025 µg/mL (≈ 0.178 µM); in series [7] it was 0.012 µg/mL (≈ 0.0856 µM). The MIC was 0.1 µg/mL (≈ 0.713 µM) in series [8]; 0.025 µg/mL (≈ 0.178 µM) in series [9]; 0.39 µg/mL (≈ 2.78 µM) in series [10]; 0.1 µg/mL (≈ 0.713 µM) in series [11]; below 0.003 µg/mL in [12]; 0.025 µg/mL (≈ 0.178 µM) in series [13]. The MIC in [14] turned out to be 0.025 µg/mL (≈ 0.178 µM); in [15] it was 0.1 µg/mL (≈ 0.713 µM); in series [16] it was 0.025 µg/mL (≈ 0.178 µM). In series [4], this compound had a Cmax of 1280 ng/mL. Also, at 30 µM the inhibition in [20] was 19%. The inhibition (commonly the change of the read-out against control, counted positive when it falls) at 100 µM in series [21] was 36%. The AUC(0-t) at 8 h in [17] came to 4760 ng·h/mL.
The compound `COc1c(N2C[C@@H]3CCOC[C@@]3(N)C2)c(F)cc2c(=O)c(C(=O)O)cn([C@@H]3C[C@@H]3F)c12.CS(=O)(=O)O` came in with a Cmax in [22] of 3700 ng/mL. The half-life (usually how long it takes for the measured level to halve) in series [23] is 4.6 h. Besides, the AUC(0-t) at 24 h in [24] stood at 19800 ng·h/mL. The dose excreted at 24 h in series [25] turned out to be 64.1%. The bioavailability (commonly dose-corrected exposure relative to a reference, in per cent) in series [26] was 75%.
